# Measured values as given in US12409206B2, “Use of cyclosporine analogues for treating fibrosis” (Hepion Pharmaceuticals, Inc., priority 2020, dated 2025).
# What was measured:
# [1] = tested on: human precision cut liver slices (PCLS); assay: PCLS RNA-Seq, Stimulation Protocol: TGFb/PDGF+CRV vs TGFb/PDGF+Vehicle; type: cell-based; conditions: for log2FoldChange: TGFb/PDGF+CRV vs TGFb/PDGF+Vehicle; for fold change in RNA: presence of exogenous TGFβ+PDGF-BB, universal in all donors
# Procedure: PCLS were obtained from 5 human donors who underwent resection of liver cancer. Replicate slices were collected from healthy margins of the resections and cultured for 4 or 6 days depending on the experimental protocol. In the Nonstimulation Protocol slices were cultured for 6 days and treated for the entire period with DMSO vehicle or 5 μM CRV431. In the Stimulation Protocol slices were rested for 1 day and then administered the cytokines, TGFβ and PDGF-BB, for 3 days to stimulate inflammation and fibrosis. DMSO vehicle, CRV431 (1 and 5 μM), Alk5i (10 μM), obeticholic acid (5 μM), elafibranor (5 μM), resmetirom ([…]), and Aramchol (5 μM) were administered individually as drug treatments in the Stimulation Protocol concurrent with TGFβ+PDGF-BB. Culture medium treatments were replaced daily.
# Four types of evaluations were conducted on the PCLS: (a) secretion of inflammation and fibrosis biomarkers into the culture medium, (b) histological staining and quantitation of Sirius red as a measure of tissue fibrosis, (c) gene expression of inflammation and fibrosis biomarkers by RT-PCR, and (d) RNA sequencing (RNA-Seq) of the complete transcriptome. Each of the four types of evaluation is described below: • (a) Biomarker secretion. Spent culture medium was collected daily from duplicate slices for each treatment. ELISAs were used to quantify secretion of monocyte chemoattractant protein (MCP-1), interleukin-6 (IL-6), tissue inhibitor of metalloproteinase-1 (TIMP1), hyaluronic acid, fibronectin, and collagen 1α1. For each donor the mean level of biomarker secretion in each treatment group was expressed as a percentage change relative to DMSO vehicle, the percentages averaged for all donors, and finally the mean daily percentage change calculated from all days of evaluation. Results are shown in FIG. 8A (secreted markers-% daily average change). • (b) Sirius red histological staining. […] Sirius red was quantified morphometrically in the histological sections as the percentage area with Sirius red staining in 10 sections from each treatment. In the Nonstimulation Protocol the quantity of Sirius red staining was expressed relative to the vehicle group. In the Stimulation Protocol the quantity of Sirius red staining was expressed relative to nonstimulated PCLS (0%) and TGFβ+PDGF-BB-stimulated+vehicle PCLS (100%). Results are shown in FIG. 8B (Sirius red staining for tissue fibrosis). • (c) Gene expression by RT-PCR. RNA was isolated from duplicate liver slices per treatment at the end of the experiments and evaluated by RT-PCR for 5 markers of inflammation and fibrosis: MCP-1, IL-6, TIMP1, αSMA, and collagen 1α1. β actin was used as a reference gene to calculate relative levels of each target gene RNA. […] Results are shown in FIG. 8C (gene expression by RT-PCR). • (d) Gene expression by RNA-Seq. RNA sequencing of the complete transcriptome (30 million reads per sample) was conducted on vehicle and 5 μM CRV431 treatment groups from 3 donors both from the Nonstimulation and Stimulation Protocols. Data were analyzed by bioinformatics software programs to identify genes that were differentially expressed between vehicle and CRV431 treatments.
# For the evaluation done for (d), 12 samples corresponding to 3 different donor slides which underwent 4 different treatments were studied. the comparisons carried out in this analysis are: (1) TGFb/PDGF+CRV vs TGFb/PDGF+Vehicle (V), and (2) Non-stimulated+CRV vs Non-stimulated+Vehicle. […] Table 1. Samples for evaluation (d)
# Quality Control check was performed in all samples. All samples had more than 30 million reads and a quality score average >35 for almost all the bases in the sequences. The duplication levels are expected as it is RNA sequencing, and different copies of the same RNA are expected to be present in the samples. All samples had good amount of reads and quality, therefore all samples passed the QC checked and were included in the analysis. […]
# [2] = tested on: human precision cut liver slices (PCLS); assay: PCLS Sirius red tissue fibrosis, Nonstimulation Protocol; type: cell-based; conditions: 6 days of culture in the absence of exogenous TGFβ+PDGF-BB; most CRV431-treated slices
# Procedure: PCLS were obtained from 5 human donors who underwent resection of liver cancer. Replicate slices were collected from healthy margins of the resections and cultured for 4 or 6 days depending on the experimental protocol. In the Nonstimulation Protocol slices were cultured for 6 days and treated for the entire period with DMSO vehicle or 5 μM CRV431. In the Stimulation Protocol slices were rested for 1 day and then administered the cytokines, TGFβ and PDGF-BB, for 3 days to stimulate inflammation and fibrosis. […]
# Four types of evaluations were conducted on the PCLS: (a) secretion of inflammation and fibrosis biomarkers into the culture medium, (b) histological staining and quantitation of Sirius red as a measure of tissue fibrosis, (c) gene expression of inflammation and fibrosis biomarkers by RT-PCR, and (d) RNA sequencing (RNA-Seq) of the complete transcriptome. […] ELISAs were used to quantify secretion of monocyte chemoattractant protein (MCP-1), interleukin-6 (IL-6), tissue inhibitor of metalloproteinase-1 (TIMP1), hyaluronic acid, fibronectin, and collagen 1α1. For each donor the mean level of biomarker secretion in each treatment group was expressed as a percentage change relative to DMSO vehicle, the percentages averaged for all donors, and finally the mean daily percentage change calculated from all days of evaluation. […]
structure (smiles),measurement,setting,value
CC[C@@H]1NC(=O)[C@H]([C@H](O)[C@H](C)CCCCCCNC(C)=O)N(C)C(=O)[C@H](C(C)C)N(C)C(=O)[C@H](CC(C)C)N(C)C(=O)[C@H](CC(C)C)N(C)C(=O)[C@@H](C)NC(=O)[C@H](C)NC(=O)[C@H](CC(C)C)N(C)C(=O)[C@H](C(C)C)NC(=O)[C@H](CC(C)C)N(C)C(=O)[C@@H](C)N(C)C1=O [CRV431],log2FoldChange,[1]; gene LAMA4,−0.939
same,log2FoldChange,[1]; gene LIMS3,−1.705
same,log2FoldChange,[1]; gene LOXL2,−0.948
same,fold change in RNA,[1]; gene LOXL2,−1.9 fold
same,log2FoldChange,[1]; gene MCAM,−0.841
same,log2FoldChange,[1]; gene MEF2C,−1.013
same,log2FoldChange,[1]; gene MEG3,−0.853
same,log2FoldChange,[1]; gene MRC2,−0.773
same,log2FoldChange,[1]; gene MROH2A,3.641
same,log2FoldChange,[1]; gene MT-CO1,−0.85
same,log2FoldChange,[1]; gene NID2,−0.755
same,log2FoldChange,[1]; gene NXPH4,−0.808
same,log2FoldChange,[1]; gene PAN2,1.019
same,log2FoldChange,[1]; gene PANK3,0.687
same,log2FoldChange,[1]; gene PCDH12,−0.741
same,log2FoldChange,[1]; gene PHF8,0.709
same,log2FoldChange,[1]; gene PKLR,2.127
same,log2FoldChange,[1]; gene PLXNA2,1.326
same,log2FoldChange,[1]; gene POU6F1,−1.716
same,log2FoldChange,[1]; gene PPP1R16B,−1.016
same,log2FoldChange,[1]; gene RALGPS2,0.836
same,log2FoldChange,[1]; gene RBMXL1,−8.265
same,log2FoldChange,[1]; gene RCCD1,−1.838
same,fold change in RNA,[1]; gene RCCD1,−3.6 fold
same,log2FoldChange,[1]; gene RHCG,−0.927
same,log2FoldChange,[1]; gene RPS7P1,2.668
same,log2FoldChange,[1]; gene SLC4A8,−2.641
same,log2FoldChange,[1]; gene SLC26A6,−0.692
same,log2FoldChange,[1]; gene SLC39A5,1.92
same,log2FoldChange,[1]; gene SMC5,0.799
same,log2FoldChange,[1]; gene STRA6,−1.639
same,fold change in RNA,[1]; gene STRA6,−3.1 fold
same,log2FoldChange,[1]; gene TDO2,0.916
same,log2FoldChange,[1]; gene TMEM70,1.062
same,log2FoldChange,[1]; gene TTYH2,−1.114
same,fold change in RNA,[1]; gene UBD/FAT10,−2.0 fold
same,log2FoldChange,[1]; gene UBD,−1.035
same,log2FoldChange,[1]; gene VWA8,1.514
same,log2FoldChange,[1]; gene ZC3H10,1.022
same,log2FoldChange,[1]; gene ZDHHC20,1.207
same,log2FoldChange,[1]; gene ZNF461,1.391
same,tissue fibrosis vs vehicle-treated slices,[2],less fibrosis than vehicle-treated slices
